# According to PubChem BioAssay (NCI):
#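 96-well plates; 48 h exposure; 5 concentrations. Endpoints by linear interpolation between flanking doses. Not reached: highest tested concentration assigned. Abbreviation: GI50, concentration required for 50% inhibition of growth. TGI denotes the concentration required for complete inhibition of growth.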
# What was measured:
# Test in all cases: growth of human tumour cells (NCI), 48 h
# [1] = test system: MDA-MB-435
# [2] = test system: M14 melanoma
# [3] = test system: LOX IMVI melanoma
# [4] = test system: HT29 colon
# [5] = test system: T-47D breast
# [6] = test system: SK-MEL-2 melanoma
# [7] = test system: MDA-MB-231 breast
# [8] = test system: SW-620 colon
# [9] = test system: UO-31 renal
# [10] = test system: SNB-75 CNS
# [11] = test system: SF-268 CNS
# [12] = test system: SN12C renal
# [13] = test system: CAKI-1 renal
# [14] = test system: MOLT-4 leukemia
# [15] = test system: OVCAR-5 ovarian
# [16] = test system: SK-MEL-28 melanoma
# [17] = test system: SF-295 CNS
# [18] = test system: HS 578T breast
# [19] = test system: K-562 leukemia
# [20] = test system: 786-0 renal
# [21] = test system: EKVX NSCLC
# [22] = test system: UACC-62 melanoma
# [23] = test system: RPMI-8226 leukemia
# [24] = test system: DU-145 prostate
# [25] = test system: NCI-H226 lung
# [26] = test system: UACC-257 melanoma
# [27] = test system: SK-OV-3 ovarian
# [28] = test system: SF-539 CNS
# [29] = test system: TK-10 renal
compound,measurement,setting,value
C=C1C(=O)O[C@H]2[C@H]1CC/C(Cn1cc(Cn3ccc4cc(Cl)ccc43)nn1)=C\CC[C@@]1(C)O[C@@H]21,TGI,[1],2980 nM
same,GI50,[2],1650 nM
same,TGI,[2],3630 nM
same,GI50,[3],1310 nM
same,TGI,[3],2880 nM
same,GI50,[4],1830 nM
same,TGI,[4],4460 nM
same,GI50,[5],1720 nM
same,TGI,[5],4320 nM
same,GI50,[6],1610 nM
same,TGI,[6],3720 nM
same,GI50,[7],1360 nM
same,TGI,[7],2820 nM
same,GI50,[8],1130 nM
same,TGI,[8],2780 nM
same,GI50,[9],1090 nM
same,TGI,[9],2290 nM
same,GI50,[10],1270 nM
same,TGI,[10],4520 nM
same,GI50,[11],1650 nM
same,TGI,[11],3130 nM
same,GI50,[12],1500 nM
same,TGI,[12],3200 nM
same,GI50,[13],1240 nM
same,TGI,[13],2500 nM
same,GI50,[14],599 nM
same,TGI,[14],3160 nM
same,GI50,[15],1650 nM
same,TGI,[15],3540 nM
same,GI50,[16],1730 nM
same,TGI,[16],3270 nM
same,GI50,[17],3980 nM
same,TGI,[17],17000 nM
same,GI50,[18],2500 nM
same,TGI,[18],6680 nM
same,GI50,[19],649 nM
same,TGI,[19],3100 nM
same,GI50,[20],1810 nM
same,TGI,[20],3570 nM
same,GI50,[21],1730 nM
same,TGI,[21],3780 nM
same,GI50,[22],1410 nM
same,TGI,[22],2780 nM
same,GI50,[23],796 nM
same,TGI,[23],3030 nM
same,GI50,[24],1550 nM
same,TGI,[24],2890 nM
same,GI50,[25],1590 nM
same,TGI,[25],3030 nM
same,GI50,[26],1700 nM
same,TGI,[26],3610 nM
same,GI50,[27],13900 nM
same,TGI,[27],26900 nM
same,GI50,[28],1570 nM
same,TGI,[28],2970 nM
same,GI50,[29],1670 nM
same,TGI,[29],3110 nM
